The conditions of the data set: 298.15 K; 101.33 kPa; Liquid.

Numbers after ± are expanded uncertainties.

A word on the mass density: it is the mass of a sample divided by its volume. With `CCCCCC[n+]1ccc2ccccc2c1.N#C[S-]` [2-hexylisoquinolinium thiocyanate], the mass density is recorded as 1081.34 ± 1.2 kg/m3.
For `CCCCCCCC[n+]1ccc2ccccc2c1.N#C[S-]` [2-octylisoquinolinium thiocyanate], the mass density was 1061.69 ± 1.2 kg/m3.
